The values below are quoted from earlier work in US12397060B2, “pHLIP®-mediated intracellular delivery of immuno-stimulatory compounds” (University of Rhode Island Board of Trustees, priority 2019, dated 2025).

Structures are written as SMILES.

This series relates to DCs, macrophages, T cells and endothelial cells sorted from B16 tumors. The following applies: stimulated ex vivo, expression highest in macrophages, followed by DCs.

`Cc1ccc2c(=O)c3cccc(CC(=O)O)c3oc2c1C` [DMXAA, 5,6-Dimethylxanthenone-4-acetic acid]: the “IFN-β expression upon stimulation” value is recorded as “All subsets expressed IFN-β”. With `Nc1ncnc2c1ncn2[C@@H]1O[C@@H]2COP(=O)([S-])O[C@@H]3[C@H](O)[C@@H](COP([O-])(=S)O[C@H]2[C@H]1O)O[C@H]3n1cnc2c(N)ncnc21.[Na+].[Na+]` (some centres unmarked) [ML RR-S2 CDA, Dithio-(Rp, Rp)-2′,3′-CDA sodium salt], the “IFN-β expression upon stimulation” value is listed as “All subsets expressed IFN-β”.
